Test system: B16-F10 (B16) cells
Assay: Bioassay Directed Fractionation (BDF) with B16 cell culture pigmentation assay
Type: cell-based
Settings: LC fraction (20 sec) of Orris root extract corresponding to the compound's peak, FIG. 2
Method: Sample extracts were prepared at 50 mg/ml in DMSO and sonicated for 20 min. Samples solutions were then filtered through 0.2 μm Whatman Anotop 25 syringe filter into autosampler vials for assay. The LC-MS system was modified to incorporate a 10:1 splitter that was positioned between the UV detector and MS ion source. The majority of LC effluent was directed to a Waters Fraction Collector II fitted with a 96-deep well plate into which fractions were collected by time at intervals of 20 sec/well for the first 32 minutes of each run (96 wells/run). The LC column was a XBridge Shield RP18, 5 μm, 4.6×250 mm maintained at ambient temperature (22° C.). The solvent program was ramped linearly as follows: 95% A/5% B at time 0, to 100% B at 30 min, hold at 100% B to 32 min, then to 95% A/5% B at 32.1 min and hold 95% A/5% B until 36 min. The flow rate was 0.8 mL/min and an injection volume of […] was used (0.5 mg solids/injection). Effluent from four consecutive LC runs was collected per plate (2 mg solids/plate). Plates were then dried under nitrogen at 40° C. to remove acetonitrile and residual water was removed by freeze drying. Plates were stored at −80° C. until to assayed for pigmentation response.
The results of the BDF are shown in FIG. 2, with LC-UV chromatogram A at 260 nm showing phytochemical peak profile, and time-aligned bar graph B (with each bar representing a fraction from the LC effluent collected for 20 seconds), showing pigmentation responses using B16 cell culture assay.
Primary cells and cell lines were grown in a humidified atmosphere of 5% CO2 at 37° C. […]
B16 cells (6000 cells/well) were pre-cultured in 96-well plates in DMEM medium supplemented with 10% FBS and 1% P/S for 24 hours. […] The absorbance at 405 nm was measured, and MTT (3-(4,5-dimethylthiazol-2-yl)-2,5-diphenyltetrazolium bromide) assay was performed to examine the viability of cells. […]

SMILES	pigmentation response
C=C1CC[C@H](C)C(C)(C)[C@@H]1/C=C/C(C)=C/CC[C@@]1(CO)[C@H](CCCO)/C(=C(/C)C=O)CC[C@]1(C)O [iriflorental, Iriflorental]	reduced pigmentation
COc1c2c(cc3occ(-c4ccc(O[C@@H]5O[C@H](CO)[C@@H](O)[C@H](O)[C@H]5O)cc4)c(=O)c13)OCO2 [germanaism B, Germanaism B]	Increased pigmentation
CC1=CC[C@H](C)C(C)(C)[C@@H]1/C=C/C(C)=C/CC[C@@]1(CO)[C@H](CCCO)/C(=C(/C)C=O)CC[C@]1(C)O [iripallidal, Iripallidal]	reduced pigmentation

Source: patent US12721808B2, “Orris root extracts, compositions, and methods for skin applications” (ACCESS BUSINESS GROUP INTERNATIONAL LLC, priority 2021, dated 2026)
